Test results: ChEMBL document CHEMBL1201862, “PubChem BioAssay data set” (2004)
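96-well plates; 48 h exposure; 5 concentrations. Endpoints by linear interpolation between flanking doses. Not reached: highest tested concentration assigned. GI50 is the concentration that inhibits growth by half.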 Calls of active or inactive are those of the source. Cut-off read from the data, not from the text of the source: active = GI50 up to about 1.1 µM and inactive = higher.

What was measured:
Assay in all cases: NCI anticancer screen, dose series, 48 h
[1] = test system: SW-620
[2] = test system: HL-60
[3] = test system: OVCAR-3
[4] = test system: PC-3
[5] = test system: SK-MEL-28
[6] = test system: NCI-H226
[7] = test system: SK-OV-3
[8] = test system: ACHN
[9] = test system: COLO 205
[10] = test system: SR
[11] = test system: OVCAR-8
[12] = test system: 786-0
[13] = test system: HCT-15
[14] = test system: SF-268
[15] = test system: TK-10
[16] = test system: IGROV-1
[17] = test system: EKVX
[18] = test system: RPMI-8226
[19] = test system: NCI-H522
[20] = test system: HT-29

Compound | GI50 [1] | GI50 [2] | GI50 [3] | GI50 [4] | GI50 [5] | GI50 [6] | GI50 [7] | GI50 [8] | GI50 [9] | GI50 [10] | GI50 [11] | GI50 [12] | GI50 [13] [µM] | GI50 [14] | GI50 [15] | GI50 [16] | GI50 [17] | GI50 [18] | GI50 [19] | GI50 [20]
CN1CCN2CCN(C)CCN(CC1)CC2 | > 100 µM (inactive) | > 100 µM (inactive) | > 100 µM (inactive) | > 100 µM (inactive) | > 100 µM (inactive) | > 100 µM (inactive) | > 100 µM (inactive) | > 100 µM (inactive) | > 100 µM (inactive) | > 100 µM (inactive) | > 100 µM (inactive) | > 100 µM (inactive) | > 100 | > 100 µM (inactive) | > 100 µM (inactive) | > 100 µM (inactive) | > 100 µM (inactive) | > 100 µM (inactive) | > 100 µM (inactive) | > 100 µM (inactive)
CN(C)CCNC(=O)c1c(O)ccc2c1c1c(n2CCc2ccccc2)C(=O)c2ccccc2C1=O | 6.93 µM (inactive) | 9.18 µM (inactive) | 12.9 µM (inactive) | 12 µM (inactive) | 1.98 µM (inactive) | 16.8 µM (inactive) | 16.4 µM (inactive) | 9.18 µM (inactive) | 15.8 µM (inactive) | 2.58 µM (inactive) | 8.36 µM (inactive) | 4.36 µM (inactive) | 4.47 | 4.15 µM (inactive) | 7.93 µM (inactive) | 8.47 µM (inactive) | 14.6 µM (inactive) | 2.75 µM (inactive) | 8.67 µM (inactive) | 6.82 µM (inactive)
CC(OC(=O)C(CC(=O)OC(C)(C)C)NC(=O)OC(C)(C)C)C(=O)OCc1ccccc1 (stereo not given) | > 100 µM (inactive) | > 100 µM (inactive) | > 100 µM (inactive) | > 100 µM (inactive) | > 100 µM (inactive) | > 100 µM (inactive) | > 100 µM (inactive) | > 100 µM (inactive) | > 100 µM (inactive) | > 100 µM (inactive) | > 100 µM (inactive) | > 100 µM (inactive) | > 100 | > 100 µM (inactive) | > 100 µM (inactive) | > 100 µM (inactive) | > 100 µM (inactive) | > 100 µM (inactive) | > 100 µM (inactive) | > 100 µM (inactive)
S=C(N/N=C/c1ccccn1)Nc1ccc(Cl)cc1 | 0.0528 µM (active) | 0.0317 µM (active) | < 0.01 µM (active) | 0.0424 µM (active) | 0.413 µM (active) | 0.0845 µM (active) | 0.0378 µM (active) | 0.0455 µM (active) | < 0.0175 µM (active) | < 0.0218 µM (active) | 0.0333 µM (active) | 0.0601 µM (active) | 0.0398 | 0.05 µM (active) | 2.93 µM (inactive) | 0.0933 µM (active) | 0.0682 µM (active) | 0.134 µM (active) | 0.028 µM (active) | 0.0426 µM (active)
O=C(O)C1(CC(CCCN2CCCCC2)c2ccccc2)CCCC1 (stereo not given) | > 100 µM (inactive) | > 100 µM (inactive) | 41.8 µM (inactive) | > 100 µM (inactive) | > 100 µM (inactive) | > 100 µM (inactive) | > 100 µM (inactive) | > 100 µM (inactive) | > 100 µM (inactive) | > 100 µM (inactive) | > 100 µM (inactive) | > 100 µM (inactive) | > 100 | > 100 µM (inactive) | > 100 µM (inactive) | > 100 µM (inactive) | > 100 µM (inactive) | > 100 µM (inactive) | > 100 µM (inactive) | > 100 µM (inactive)
CC(C)(C)OC(=O)NCC(c1c[nH]c2cc(Br)ccc12)c1c[nH]c2cc(Br)ccc12 | 28.9 µM (inactive) | 27.2 µM (inactive) | 15.7 µM (inactive) | 17.3 µM (inactive) | 29.2 µM (inactive) | 15.4 µM (inactive) | 15.8 µM (inactive) | 16.7 µM (inactive) | 15.6 µM (inactive) | > 100 µM (inactive) | 18.3 µM (inactive) | 18.6 µM (inactive) | 15.1 | 16.3 µM (inactive) | 19.7 µM (inactive) | 14.9 µM (inactive) | 16.2 µM (inactive) | 32.7 µM (inactive) | 17.3 µM (inactive) | 16.9 µM (inactive)
CC1CNC(c2ccc(-c3nc(-c4ccc(C5=NC(C)CN5)cc4)nc(N(C)C)n3)cc2)=N1 (stereo not given) | 1.17 µM (inactive) | 2.62 µM (inactive) | 1.79 µM (inactive) | 1.57 µM (inactive) | 2.69 µM (inactive) | 2.02 µM (inactive) | 1.91 µM (inactive) | 3.01 µM (inactive) | 1.1 µM (active) | 0.653 µM (active) | 2.12 µM (inactive) | 1.28 µM (inactive) | 16.6 | 2 µM (inactive) | 3.78 µM (inactive) | 4.06 µM (inactive) | 2.54 µM (inactive) | 3.78 µM (inactive) | 1.24 µM (inactive) | 1.79 µM (inactive)
Cc1nc2ccc(Cl)cc2c(Cl)c1CCCl | 40.2 µM (inactive) | 46.6 µM (inactive) | 48 µM (inactive) | 80.7 µM (inactive) | > 100 µM (inactive) | 43.6 µM (inactive) | > 100 µM (inactive) | > 100 µM (inactive) | 57.3 µM (inactive) | 34.4 µM (inactive) | 62.4 µM (inactive) | > 100 µM (inactive) | 43.1 | > 100 µM (inactive) | > 100 µM (inactive) | 72.6 µM (inactive) | 51.3 µM (inactive) | 35.2 µM (inactive) | 39.3 µM (inactive) | 27.2 µM (inactive)
Cc1cc(Cl)nc2nc(Cl)c(N)cc12 | 2.04 µM (inactive) | 1.77 µM (inactive) | 1.87 µM (inactive) | 12.1 µM (inactive) | 2.56 µM (inactive) | 21.5 µM (inactive) | 21.3 µM (inactive) | 5.38 µM (inactive) | 2.06 µM (inactive) | 2.88 µM (inactive) | 2.67 µM (inactive) | 2.86 µM (inactive) | 1.9 | 2.29 µM (inactive) | 6.58 µM (inactive) | 7.87 µM (inactive) | 3.48 µM (inactive) | 2.26 µM (inactive) | 4.53 µM (inactive) | 2.15 µM (inactive)
COc1ccccc1/C=C1\CCC(CN(C)C)C1=O (stereo not given) | 2.58 µM (inactive) | 1.49 µM (inactive) | 5.38 µM (inactive) | 8.05 µM (inactive) | 4.36 µM (inactive) | 11.4 µM (inactive) | 19.4 µM (inactive) | 8.02 µM (inactive) | 2.25 µM (inactive) | 6.15 µM (inactive) | 5.78 µM (inactive) | 2.16 µM (inactive) | 2.75 | 10.6 µM (inactive) | 5.73 µM (inactive) | 13.3 µM (inactive) | 15 µM (inactive) | 2.05 µM (inactive) | 1.85 µM (inactive) | 4.89 µM (inactive)
C[C@]12CC[C@H]3[C@@H](CCC4=C[C@@H](N5CCCC5)CC[C@@]43C)[C@@H]1C/C(=C\c1ccncc1)[C@@H]2O | 13.4 µM (inactive) | 16 µM (inactive) | 16.4 µM (inactive) | 13.6 µM (inactive) | 7.31 µM (inactive) | 15.6 µM (inactive) | 18 µM (inactive) | 17 µM (inactive) | 6.32 µM (inactive) | 3.16 µM (inactive) | 24.9 µM (inactive) | 2.86 µM (inactive) | 8.43 | 16.5 µM (inactive) | 13.2 µM (inactive) | 20.6 µM (inactive) | 15.7 µM (inactive) | 4.79 µM (inactive) | 10.3 µM (inactive) | 0.631 µM (active)
CC(Oc1ccc(Cl)cc1Cl)C(=O)NN1C(=O)CSC1c1ccc(Cl)cc1 (stereo not given) | > 100 µM (inactive) | 35.3 µM (inactive) | 54.5 µM (inactive) | 38.5 µM (inactive) | 67.3 µM (inactive) | 17.6 µM (inactive) | 54.3 µM (inactive) | 42.5 µM (inactive) | > 100 µM (inactive) | 19.5 µM (inactive) | 46.9 µM (inactive) | 53.6 µM (inactive) | > 100 | 88.7 µM (inactive) | 80.5 µM (inactive) | 36.1 µM (inactive) | 80 µM (inactive) | 35.7 µM (inactive) | 93.1 µM (inactive) | 70.1 µM (inactive)
O=C1c2ccccc2C(=O)c2sc(Nc3cc(Cl)ccc3Cl)nc21 | 2.94 µM (inactive) | 0.736 µM (active) | 0.74 µM (active) | 3.21 µM (inactive) | 6.7 µM (inactive) | 17.6 µM (inactive) | 16 µM (inactive) | 5.3 µM (inactive) | 16 µM (inactive) | 2.52 µM (inactive) | 3.77 µM (inactive) | 3.61 µM (inactive) | 2.94 | 4.09 µM (inactive) | 15 µM (inactive) | 4.15 µM (inactive) | 12.9 µM (inactive) | 3.22 µM (inactive) | 2.95 µM (inactive) | 14.1 µM (inactive)
COc1ccc(-c2c(C#N)c(=O)nc(SC)n2C2OCC(OC(C)=O)C(OC(C)=O)C2OC(C)=O)cc1 (stereo not given) | 64.3 µM (inactive) | 22.2 µM (inactive) | > 100 µM (inactive) | 47.3 µM (inactive) | > 100 µM (inactive) | > 100 µM (inactive) | > 100 µM (inactive) | 75 µM (inactive) | > 100 µM (inactive) | 5.11 µM (inactive) | 90.6 µM (inactive) | > 100 µM (inactive) | 34.8 | 55 µM (inactive) | > 100 µM (inactive) | > 100 µM (inactive) | 87.5 µM (inactive) | 37.7 µM (inactive) | 74 µM (inactive) | 56 µM (inactive)
